Source: patent US6498126B1, “Herbicide combination with acylated aminophenylsulfonylureas” (Aventis CropScience GmbH, priority 1999, dated 2002)

Tested on: Setaria lutescens
Assay: Herbicidal action (field trials), post-emergence treatment, visual scoring of damage
Assay type: in vivo
Procedure: The seeds or rhizome pieces of typical harmful plants were planted and grown under natural field conditions. After the harmful plants had emerged, they were treated, as a rule at the 2-to 8-leaf stage, with various dosages of the compositions according to the invention at a water application rate of 100 to 400 I/ha (converted).
After the treatment (approx. 4-6 weeks after application), the herbidical activity of the active ingredients or active ingredient mixtures was scored visually by comparing the treated plots with the untreated control plots. Damage and development of all aerial parts of the plants was recorded. Scoring was done on a percentage scale (100% action=all plants dead; 50% action=50% of the plants and green plant parts dead; 0% action=no discernible action=like control plot). The score figures of in each case 4 plots was averaged.
The results are shown in the tables which follow, the action when using active ingredients A and B independently being stated in brackets.

COc1cc(OC)nc(Sc2cccc(Cl)c2C(=O)[O-])n1.[Na+] [Pyrithiobac (B2.7), sodium 2-chloro-6-(4,6-dimethoxypyrimidin-2-ylthio)benzoate, reference compound]
Herbicidal effect on Setaria lutescens Damage in % (Table 4, 105 gAS/ha, treatment at the 6-8 leaf stage, scoring 27 days after application): 25%

CCOc1nc(NC)nc(NC(=O)NS(=O)(=O)c2ccccc2C(=O)OC)n1 [ethametsulfuron (B2.6), methyl 2-{N-[N-(4-ethoxy-6-methylamino-1,3,5-triazin-2-yl)-aminocarbonyl]-aminosulfonyl}benzoate, reference compound]
Herbicidal effect on Setaria lutescens Damage in % (Table 1, 15 gAS/ha, treatment at the 6-8 leaf stage, scoring 27 days after application): 33%

CS(=O)(=O)NC(=O)c1cc(Oc2ccc(C(F)(F)F)cc2Cl)ccc1[N+](=O)[O-] [Fumesafen (B2.9), 5-(2-chloro-α,α,α-trifluoro-p-tolyloxyl)N-methylsulfonyl-2-nitrobenzamide, reference compound]
Herbicidal effect on Setaria lutescens Damage in % (Table 3, 240 gAS/ha, treatment at the 2-leaf stage, scoring 39 days after application): 25%

COc1cc(OC)nc(NC(=O)NS(=O)(=O)c2cc(NC=O)ccc2C(=O)N(C)C)n1 [A1.1, N-[N-(4,6-dimethoxypyrimidin-2-yl)-aminocarbonyl]-2-(dimethyl-aminocarbonyl)-5-(formylamino)benzenesulfonamide]
Herbicidal effect on Setaria lutescens Damage in % (Table 1, 35 gAS/ha, treatment at the 6-8 leaf stage, scoring 27 days after application): 30% | Herbicidal effect on Setaria lutescens Damage in % (Table 1, 70 gAS/ha, treatment at the 6-8 leaf stage, scoring 27 days after application): 97% | Herbicidal effect on Setaria lutescens Damage in % (Table 2, 35 gSA/ha, treatment at the 6-8 leaf stage, scoring 27 days after application): 30% | Herbicidal effect on Setaria lutescens Damage in % (Table 2, 70 gSA/ha, treatment at the 6-8 leaf stage, scoring 27 days after application): 97% | Herbicidal effect on Setaria lutescens Damage in % (Table 3, 35 gAS/ha, treatment at the 2-leaf stage, scoring 39 days after application): 65% | Herbicidal effect on Setaria lutescens Damage in % (Table 3, 70 gAS/ha, treatment at the 2-leaf stage, scoring 39 days after application): 87% | Herbicidal effect on Setaria lutescens Damage in % (Table 4, 35 gAS/ha, treatment at the 6-8 leaf stage, scoring 27 days after application): 65% | Herbicidal effect on Setaria lutescens Damage in % (Table 4, 70 gAS/ha, treatment at the 6-8 leaf stage, scoring 27 days after application): 85%
